Laboratory results from US9637529B2, “Medicament for atrophy treatment or increasing cell growth” (SIMU TRADE CONSULTING GMBH & CO. LEASING KG, priority 2012, dated 2017).
“Also recorded” adds a separate entry of the source.

Tests used:
[1] = system: rat cardiomyocytes (H9c2); assay: AlamarBlue proliferation assay, H9c2 cells; format: cell-based
Method: FIG. 3: Effect of SERF2 on Proliferation of H9c2 cells is dose-dependent. Proliferation assay was performed essentially as in FIG. 2. Incubation time was 24 hrs, added SERF2 concentrations ranged from 20 to 1.25 μg/ml.
FIG. 5: Kinetics of the Effect of SERF2 on Proliferation of rat cardiomyocytes (H9c2). Cells stimulated with SERF2 (green line) responded with proliferation and reached max. proliferation rate after 6 days. Proliferation assay was performed essentially as in FIG. 2. Incubation times were 24, 48, 72 and 144 hrs, the SERF2 concentration added was 5 μg/ml.
Rat derived embryonic cardiomyocytes H9c2 (ATTC CRL-1446) and embryonic skeletal muscle cells L6 (ATTC CRL-1458) were cultured in Dulbecco's Modified Eagle Medium high glucose (DMEM, Sigma Aldrich) containing 10% v/v fetal calf serum (FCS, PAA) and 1% v/v Penicillin/Streptamycin (Gibco). Cells were grown in 80 cm2 cell culture flasks (NUNC) using 15 ml growth medium. Both cell lines were incubated under humidified atmosphere at +37° C. and 5% v/v CO^2. Cells were splitted when a confluency of approximately 90% was reached. Usually a splitting ratio of 1:5 or 1:10 was applied. For this purpose, supernatant was removed and cells were washed using 10 ml Dulbecco's Phosphate Buffered Saline (DPBS, Gibco). Cells were harvested by addition of 3 ml Trypsin/EDTA (Gibco) followed by an incubation of 5 to 10 min at +37° C. Successful detachment of cells was checked under the microscope (IMT-2, Olympus) and 7 ml growth medium were added. Cell number and viability were determined by trypanblue exclusion performed by using an automated cell analyzer (CEDEX, Innovatis). For this, 950 μl DPBS and 50 μl cell-suspension were mixed and used for analysis.
Proliferation was measured using the AlamarBlue™ assay according to the manufacturer's protocol. Briefly, 1×10^4 cells were seeded per well containing 100 μl growth medium. […] Fluorescence (Ex. 570 nm, Em. 585 nm) was measured using a Varioskan Flash multi-plate reader (Thermo Scientific). Data were evaluated using Microsoft Excel and GraphPad Prism V4.

zebrafish = assay: Zebrafish TUNEL in situ staining of apoptotic cells; format: in vivo; conditions: gill, skeletal muscle and tail sections, versus untreated animals
Method: FIG. 18: Apoptotic cells detected by TUNEL technology in gill, skeletal muscle and tail sections.
SERF2 was administered by a) injection of the native protein into the yolk sac of 3 day post fertilization (dpf) animals and freshly fertilized eggs (2-8 cell stage) in various protein concentrations or chronic incubation with the native protein to supply it via diffusion. For in deep analysis of angiogenic effects flk-1 transgenic animals with gfp (green fluorescent protein) labelled endothelium were used. For all other experiments wildtype (wdt) animals were used.
Apoptotic. cells were detected by TUNEL technology using in situ Cell Death Detection Kit, Fluorescein (Roche Applied Science, Mannheim, Germany) according to the manufacturer's instructions. Statistical Analysis. The acquired data statistically analyzed by using a two tailed students t-Test (Microsoft Excel) and significance was accepted when P<0.05. Data are presented as mean±S.E.M.

[2] = system: chorionallantoic membrane (CAM); assay: Hen's Egg Test - Chorionallantoic Membrane (HET-CAM) angiogenesis assay; format: in vivo, chicken; conditions: SERF2 3 μg/CAM, VEGF-A 0.5 μg/CAM; treatment on embryonic day 6 and 7; microscopic evaluation, manual count
Method: FIG. 12: Proangiogenic effect of SERF2 in CAM assays. To evaluate the pro-angiogenic properties of SERF2, 3 μg of A: PBS and C: SERF2 was applied per CAM. B: VEGF-A (0.5 μg/CAM) was used as positive control, PBS served as a negative control. […] Treatment was performed on embryonic day 6 and 7. Angiogenic responses were evaluated microscopically. Pictures shown were taken for documentation on day 6.
Fertilized specific-pathogen free eggs (White Leghorn) were obtained from BAXTER Biosciences (Vienna, Austria) on embryonic day 5 (E5). Eggs were disinfected on the surface using a towel soaked with Microzid (Schlilke, Austria). A tiny hole was drilled and 3 ml albumen were removed using a syringe equipped with a 18 G needle. Subsequently, the hole was covered with paraffin. To open the eggs, another hole was drilled on top. The egg shell was removed in this area using a pair of tweezers. […] Angiogenic potential of tested peptides was evaluated microscopically at the end of the experiment.
The HET-CAM assay enables the assessment of the angiogenic potential of substrates or cells. A suitable VEGF concentration was determined, which can be used as positive control. […] Angiogenic response was determined on Ell by light microscopy.
To evaluate the pro-angiogenic properties of SERF2, the protein was subjected to Het-CAM assay. […] Angiogenic responses were evaluated microscopically on E7 as well as on E8. […]

Question: With “SERF2: Small EDRK-rich factor 2, mature protein of 59 amino acids (SEQ ID NO: 1) (MTRGNQRELARQKNMKKQSDSVKGKRRDDGLSAAARKQRDSEIMQQKQKKANEKKEEPK; homo sapiens)” as the substance, how does the “proliferative effect on H9c2 cells” value ([1]; 24 h treatment, SERF2 20 to 1.25 μg/ml) read?
Answer: proliferative effect in a dose-dependent manner

Question: What about the “SERF2 concentration at which proliferative effect peaks, H9c2” value ([1]; AlamarBlue) of the same substance?
Answer: 5 µg/mL

Question: What about the “time to max. proliferation rate, H9c2” value ([1]; SERF2 5 μg/ml, incubation 24, 48, 72 and 144 hrs) of the same substance?
Answer: 6 days

Question: And the “number of apoptotic cells (TUNEL)” value (zebrafish)?
Answer: reduced number of apoptotic cells; also recorded: lower in different regions as compared to untreated animals

Question: And the “angiogenic response (newly formed vessels) in CAM” value [2]?
Answer: pro-angiogenic response; also recorded: New vessels were identified
